Assay results: patent US20150185241A1, “Tilidine Immunodetection” (Randox Laboratories Limited, priority 2013, published 2015)
Where a name gives a salt, the structure may show the parent alone.

Legend:
[1] = test system: tilidine-specific antibody raised from Immunogen-II; assay: Competitive ELISA (Example 8): different Ig fraction of antiserum raised to Immunogen II, hapten-HRP conjugate of Example 6 as detecting agent; format: binding; details: for % cross-reactivity: relative to tilidine HCl = 100; for % cross-reactivity / IC50: different Ig fraction (Example 8); for IC50: standard concentration which produces 50% B/Bo
Procedure: The wells of an enhanced binding 96 well polystyrene microtitre plate were coated with a different Ig fraction (to that exemplified in Example 7) of the antiserum raised to Immunogen II (N-(carboxypropyl)nortilidine-BTG—example 5), diluted in 10 mMTris, pH 8.5 (125 μl/well). The appropriate antibody coating dilution was determined using standard ELISA checkerboard techniques. The plate was incubated for 2 hours at 37° C., washed 4 times over 10 minutes with Tris buffered saline, containing Tween 20 (TBST) and tapped dry. Standard solutions of tilidine hydrochloride (a mixture of the two trans isomers—the 1R, 2S and the 1S, 2R trans isomers) and bisnortilidine hydrochloride (a mixture of the two trans isomers—the 1R, 2S and the 1S, 2R trans isomers) were prepared in TBST at 0, 0.313 ng/ml, 0.625 ng/ml, 1.25 ng/ml, 2.5 ng/ml, 5 ng/ml, 10 ng/ml and 20 ng/ml and 50 μl of each was added to the appropriate wells. 75 μl of conjugate of example 6 (hapten-HRP), diluted in Tris buffer (pH7.2) containing EDTA, D-mannitol, sucrose, thimerosal and BSA was added to each of the wells. The appropriate dilution of conjugate was also determined using standard ELISA checkerboard techniques. The plate was incubated at 25° C. for 1 hour. Excess unbound conjugate was removed by washing 6 times over a 10-15 minute period with TBST. 125 μl of tetramethylbenzidine (TMB) substrate solution was added to each well of the plate that was then incubated for 20 minutes in the dark at room temperature. The reaction was terminated by the addition of 125 μl of 0.2M H2SO4 to each well. The absorbance was then measured at 450 nm using a microtitre plate reader.

[2] = test system: tilidine-specific antibody raised from Immunogen-II; assay: Competitive ELISA (Example 7): Ig fraction of antiserum raised to Immunogen II, hapten-HRP conjugate of Example 6 as detecting agent; format: binding
Procedure: The wells of an enhanced binding 96 well polystyrene microtitre plate were coated with the Ig fraction of the antiserum raised to Immunogen II (N-(carboxypropyl)nortilidine-BTG—example 5), diluted in 10 mMTris, pH 8.5 (125 μl/well). The appropriate antibody coating dilution was determined using standard ELISA checkerboard techniques. The plate was incubated for 2 hours at 37° C., washed 4 times over 10 minutes with Tris buffered saline, containing Tween 20 (TBST) and tapped dry. Standard solutions of tilidine hydrochloride (a mixture of the two trans isomers—the 1R, 2S and the 1S, 2R trans isomers) and nortilidine hydrochloride (a mixture of the two trans isomers—the 1R, 2S and the 1S, 2R trans isomers) were prepared in TBST at 0, 0.625 ng/ml, 1.25 ng/ml, 2.5 ng/ml, 5 ng/ml, 10 ng/ml, 20 ng/ml and 40 ng/ml and 50 μl of each was added to the appropriate wells. 75 μl of conjugate of example 6 (hapten-HRP), diluted in Tris buffer (pH7.2) containing EDTA, D-mannitol, sucrose, thimerosal and BSA was added to each of the wells. The appropriate dilution of conjugate was also determined using standard ELISA checkerboard techniques. The plate was incubated at 25° C. for 1 hour. Excess unbound conjugate was removed by washing 6 times over a 10-15 minute period with TBST. 125 μl of tetramethylbenzidine (TMB) substrate solution was added to each well of the plate that was then incubated for 20 minutes in the dark at room temperature. The reaction was terminated by the addition of 125 μl of 0.2M H2SO4 to each well. The absorbance was then measured at 450 nm using a microtitre plate reader.

Molecule	% cross-reactivity [1]	% B/Bo ([1]; standard 0.313 ng/ml)	% B/Bo ([1]; standard 0.625 ng/ml)	% B/Bo ([1]; standard 1.250 ng/ml)	% B/Bo ([1]; standard 2.500 ng/ml)	% B/Bo ([1]; standard 5.000 ng/ml)	% B/Bo ([1]; standard 10.000 ng/ml)	% B/Bo ([1]; standard 20.000 ng/ml)	IC50 [1]	% cross-reactivity ([2]; relative to tilidine HCl = 100, Ig fraction of Example 7)	% B/Bo ([2]; standard 0.625 ng/ml)	% B/Bo ([2]; standard 1.250 ng/ml)	% B/Bo ([2]; standard 2.500 ng/ml)	% B/Bo ([2]; standard 5.000 ng/ml)	% B/Bo ([2]; standard 10.000 ng/ml)	% B/Bo ([2]; standard 20.000 ng/ml)	% B/Bo ([2]; standard 40.000 ng/ml)	IC50 ([2]; standard concentration which produces 50% B/Bo, Ig fraction of Example 7)
CCOC(=O)[C@]1(c2ccccc2)CCC=C[C@H]1N(C)C (racemic) [Tilidine HCl, (±)-trans-ethyl 2-(N,N-dimethylamino)-1-phenylcyclohex-3-enylcarboxylate]	100%	70%	63%	52%	41%	31%	21%	14%	1.473 ng/mL	100%	63%	55%	46%	37%	28%	20%	14%	1.820 ng/mL
(±)-trans-ethyl 2-amino-1-phenylcyclohex-3-enylcarboxylate [Bisnortilidine HCl]	14.73%	86%	82%	76%	68%	59%	50%	39%	10.0 ng/mL	–	–	–	–	–	–	–	–	–
